Reference: patent publication US20050085531A1, “Thiophene-based compounds exhibiting ATP-utilizing enzyme inhibitory activity, and compositions, and uses thereof” (priority 2003, published 2005)

Biological target: AKT1 (Homo sapiens, UniProt P31749)
Assay: HTS off-chip mobility-shift assay, typical screen parameters for AKT1
Type: biochemical
Details: read-out: inhibition (control inhibitor)
Description: The following procedures describe the reagent and plate preparation for a HTS of an ATP-utilizing enzyme, such as a protein kinase, run in an off-chip mobility-shift assay format. The following provides an HTS protocol for running a protein kinase HTS screen on a Caliper HTS 250 microfluidics system. The following parameters are dependent on the protein kinase used and can be determined by one skilled in the art as part of a typical assay development process. For example, the peptide substrate used can be identified from the current literature, by screening a peptide library of potential protein kinase substrates, or by other applicable means accepted in the field.
The following table provides typical screen assay parameters appropriate for a Caliper HTS 250 microfluidics system used to assay AKT1. Parameters used to assay other protein kinases can be determined by one skilled in the art. […]
Assays to determine the kinase inhibitory activity of compounds of the present disclosure were performed using a Caliper HTS 250 microfluidics device, Greiner U-bottom assay plates, a Multidrop for transfer of reagents, and Biomek FX (AMNCBM03) software. […] The inhibition of the ATP-utilizing enzyme, such as a particular protein kinase, was determined by measuring the ratio of the peptide substrate to phosphorylated product for each well of the assay plate using the Caliper HTS 250 system.

AKT1, sequence (P31749 whole entry): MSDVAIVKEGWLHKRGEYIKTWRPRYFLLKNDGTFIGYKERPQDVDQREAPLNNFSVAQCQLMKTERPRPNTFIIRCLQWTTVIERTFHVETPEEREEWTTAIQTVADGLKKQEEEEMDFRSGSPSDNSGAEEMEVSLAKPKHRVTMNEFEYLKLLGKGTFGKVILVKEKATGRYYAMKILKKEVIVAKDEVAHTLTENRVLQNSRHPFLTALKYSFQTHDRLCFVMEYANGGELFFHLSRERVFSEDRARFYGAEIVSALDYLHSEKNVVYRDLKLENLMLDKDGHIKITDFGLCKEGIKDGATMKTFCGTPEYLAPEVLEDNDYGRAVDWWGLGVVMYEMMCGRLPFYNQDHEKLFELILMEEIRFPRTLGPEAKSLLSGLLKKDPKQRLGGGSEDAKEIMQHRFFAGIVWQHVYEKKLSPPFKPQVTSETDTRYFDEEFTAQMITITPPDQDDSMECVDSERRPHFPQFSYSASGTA

SMILES | inhibition at 20000 µM (inhibitor concentration 20 mM, AKT1 screen) [%] | inhibition at 0.138 µM [%]
O=C(O)CN(CCN(CC(=O)O)CC(=O)O)CC(=O)O [EDTA, ethylenediaminetetraacetic acid] | 100 | –
CN[C@@H]1C[C@H]2O[C@@](C)([C@@H]1OC)n1c3ccccc3c3c4c(c5c6ccccc6n2c5c31)C(=O)NC4 [Staurosporine] | – | 70
